From PubChem BioAssay AID1259411 (Chemical Carcinogenesis Research Information System (CCRIS), 2018)
Calls of active or inactive are those of the source. No rule for the calls is given here.

Tested on: rodent carcinogenicity bioassays, tumor incidence
Assay: CCRIS carcinogenicity studies
Procedure, shortened: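 NCI-built, expert-reviewed records of carcinogenicity and related test outcomes (mutagenicity, tumor promotion/inhibition) compiled from published and report sources, historical span 1985-2011, not updated.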

`O[C@H]1C=Cc2ccc3cc4ccccc4nc3c2[C@@H]1O` was tested, and the carcinogen call (Species: MOUSE, Strain/Sex: SWISS/FEMALE, Route: INTRAPERITONEAL, Dose: 0, 1.05 UMOL GIVEN AS 150 NMOL IN 5 µL DMSO WITHIN 24 HR OF BIRTH, 300 NMOL IN 10 µL DMSO ON D 8 OF LIFE, AND 600 NMOL I) was “inactive; negative” and the carcinogen call (Species: MOUSE, Strain/Sex: SWISS/MALE, Route: INTRAPERITONEAL, Dose: 0, 1.05 UMOL GIVEN AS 150 NMOL IN 5 µL DMSO WITHIN 24 HR OF BIRTH, 300 NMOL IN 10 µL DMSO ON D 8 OF LIFE, AND 600 NMOL I) was “inactive; negative”.
With `CCn1cc(C(=O)O)c(=O)c2ccc(C)nc21` the carcinogen call (Species: MOUSE, Strain/Sex: B6C3F1/FEMALE, Route: ORAL, Dose: 0, 2000, 4000 PPM IN FEED FOR 103 WK (STUDY DURATION: 104 WK), Dose: 0, 2000, 4000 PPM IN FEED FOR 103 WK (STUDY DURATION: 104 WK)) was “inactive; negative”, the carcinogen call (Species: MOUSE, Strain/Sex: B6C3F1/MALE, Route: ORAL, Dose: 0, 2000, 4000 PPM IN FEED FOR 103 WK (STUDY DURATION: 104 WK), Dose: 0, 2000, 4000 PPM IN FEED FOR 103 WK (STUDY DURATION: 104 WK), Tumor Site: Type of Lesion: INTEGUMENTARY SYSTEM (SUBCUTANEOUS TISSUE): FIBROMA OR FIBROSARCOMA) was “equivocal” and the carcinogen call (Species: RAT, Strain/Sex: F344/FEMALE, Route: ORAL, Dose: 0, 2000, 4000 PPM IN FEED FOR 103 WK (STUDY DURATION: 104 WK), Dose: 0, 2000, 4000 PPM IN FEED FOR 103 WK (STUDY DURATION: 104 WK), Tumor Site: Type of Lesion: CLITORAL GLAND: ADENOMA, ADENOMA OR PAPILLOMA, ADENOMA OR PAPILLOMA OR CARCINOMA OR PAPILLARY CARCINOMA) was “active; positive”. The carcinogen call (Species: RAT, Strain/Sex: F344/MALE, Route: ORAL, Dose: 0, 2000, 4000 PPM IN FEED FOR 103 WK (STUDY DURATION: 104 WK), Dose: 0, 2000, 4000 PPM IN FEED FOR 103 WK (STUDY DURATION: 104 WK), Tumor Site: Type of Lesion: PREPUTIAL GLAND: ADENOMA, ADENOMA OR PAPILLOMA, CARCINOMA) was “active; positive”.
`O=C1c2ccccc2C(=O)C1c1ccc2ccccc2n1` was tested, and the carcinogen call (Species: RAT, Strain/Sex: F344/FEMALE, Route: ORAL, Dose: 0, 500, 1700, 5000 PPM IN DIET FOR 106 WK (STUDY DURATION: 111 WK), Dose: 0, 500, 1700, 5000 PPM IN DIET FOR 106 WK (STUDY DURATION: 111 WK), Tumor Site: Type of Lesion: LIVER: HEPATOCELLULAR ADENOMA OR CARCINOMA) was “active; positive” and the carcinogen call (Species: RAT, Strain/Sex: F344/MALE, Route: ORAL, Dose: 0, 500, 1700, 5000 PPM IN DIET FOR 105 WK (STUDY DURATION: 110 WK), Dose: 0, 500, 1700, 5000 PPM IN DIET FOR 105 WK (STUDY DURATION: 110 WK), Tumor Site: Type of Lesion: KIDNEY(RENAL TUBULE): ADENOMA OR CARCINOMA, LIVER: HEPATOCELLULAR ADENOMA, ORAL CAVITY: SQUAMOUS CELL PAPILLOMA, SQUAMOU, Tumor Site: Type of Lesion: KIDNEY(RENAL TUBULE): ADENOMA OR CARCINOMA, LIVER: HEPATOCELLULAR ADENOMA, ORAL CAVITY: SQUAMOUS CELL PAPILLOMA, SQUAMOU) was “active; positive”.
For `CC/C(=C(/CC)c1ccc(O)cc1)c1ccc(O)cc1`, the carcinogen call (Species: HAMSTER, Route: PRE-NATAL EXPOSURE, Tumor Site: Type of Lesion: UTERUS, ACCESSORY SEX ORGANS (M), VAGINA, CERVIX, Tumor Site: Type of Lesion: UTERUS, ACCESSORY SEX ORGANS (M), VAGINA, CERVIX) was “active; positive”, the carcinogen call (Species: HAMSTER, Route: SUBCUTANEOUS IMPLANT, Tumor Site: Type of Lesion: KIDNEY) was “active; positive” and the carcinogen call (Species: HAMSTER, Route: SUBCUTANEOUS, Tumor Site: Type of Lesion: KIDNEY) was “active; positive”. For the same compound, the carcinogen call (Species: HAMSTER, Strain/Sex: SYRIAN/MALE, Route: SUBCUTANEOUS IMPLANT, Dose: 0, 20 MG IN PELLETS IMPLANTED EVERY 2.5 MO FOR 9 MO (STUDY DURATION: 9 MO), Tumor Site: Type of Lesion: KIDNEY: TUMOR) was “active; positive”, the carcinogen call (Species: HUMAN, Route: DERMAL, Tumor Site: Type of Lesion: CERVIX OR VAGINA) was “active; positive” and the carcinogen call (Species: MONKEY, Route: SUBCUTANEOUS, Tumor Site: Type of Lesion: UTERUS) was “active; positive”. The carcinogen call (Species: MOUSE, Route: NEO-NATAL EXPOSURE, Tumor Site: Type of Lesion: CERVIX, VAGINA) was “active; positive”, the carcinogen call (Species: MOUSE, Route: ORAL, Tumor Site: Type of Lesion: MAMMARY GLAND, CERVIX, VAGINA, Tumor Site: Type of Lesion: MAMMARY GLAND, CERVIX, VAGINA) was “active; positive” and the carcinogen call (Species: MOUSE, Route: PRE-NATAL EXPOSURE, Tumor Site: Type of Lesion: CERVIX, VAGINA, OVARIES, Tumor Site: Type of Lesion: CERVIX, VAGINA, OVARIES) was “active; positive”. For the same compound, the carcinogen call (Species: MOUSE, Route: SUBCUTANEOUS IMPLANT, Tumor Site: Type of Lesion: TESTES, MAMMARY GLAND, LYMPHATIC SYSTEM, Tumor Site: Type of Lesion: TESTES, MAMMARY GLAND, LYMPHATIC SYSTEM) was “active; positive”, the carcinogen call (Species: MOUSE, Route: SUBCUTANEOUS, Tumor Site: Type of Lesion: MAMMARY GLAND, GENITAL TRACT, OVARIES, Tumor Site: Type of Lesion: MAMMARY GLAND, GENITAL TRACT, OVARIES) was “active; positive” and the carcinogen call (Species: MOUSE, Strain/Sex: C3H/FEMALE, Route: ORAL, Dose: 0, 2.5, 5, 10, 20, 40, 80, 160, 320, 640 PPB IN DIET (STUDY DURATION: 455 D), Dose: 0, 2.5, 5, 10, 20, 40, 80, 160, 320, 640 PPB IN DIET (STUDY DURATION: 455 D), Tumor Site: Type of Lesion: MAMMARY GLAND: ADENOCARCINOMA) was “active; positive”. For the same compound, the carcinogen call (Species: MOUSE, Strain/Sex: C57BL/6/MALE,FEMALE (WILD TYPE), Route: DIET, Dose: 0, 1500 PPB IN DIET FOR 39 WKS (STUDY DURATION: 39 WKS)) was “inactive; negative”, the carcinogen call (Species: MOUSE, Strain/Sex: C57BL/6/XPA/P53/MALE,FEMALE (TRANSGENIC), Route: DIET, Dose: 0, 1500 PPB IN DIET FOR 39 WKS (STUDY DURATION: 39 WKS), Tumor Site: Type of Lesion: BONE: OSTEOSARCOMA (MALES ONLY), TESTICULAR INTERSTITIAL CELL ADENOMA (BENIGN), MALES) was “active; positive in males only” and the carcinogen call (Species: MOUSE, Strain/Sex: C57BL/6XPA/MALE,FEMALE (TRANSGENIC), Route: DIET, Dose: 0, 100, 300, 1500 PPB IN DIET FOR 39 WKS (STUDY DURATION: 39 WKS), Dose: 0, 100, 300, 1500 PPB IN DIET FOR 39 WKS (STUDY DURATION: 39 WKS), Tumor Site: Type of Lesion: PITUITARY: ADENOMA (BENIGN)) was “significant in males at 1500 ppb only”. For the same compound, the carcinogen call (Species: MOUSE, Strain/Sex: CD-1/FEMALE, Route: INTRAPERITONEAL, Dose: 0, 1 UG/G BW ADMINISTERED TO PREGNANT MICE AT 16 D AND 16 HR, 17 D, OR 17 D 16 HR POST CONCEPTION OR 2 UG/G BW AT 17 D 1, Tumor Site: Type of Lesion: PITUITARY GLAND: TUMOR) was “active; positive”, the carcinogen call (Species: RAT, Route: NEO-NATAL EXPOSURE, Tumor Site: Type of Lesion: ACCESSORY SEX ORGANS (M)) was “active; positive” and the carcinogen call (Species: RAT, Route: ORAL, Tumor Site: Type of Lesion: MAMMARY GLAND, PITUITARY GLAND) was “active; positive”. For the same compound, the carcinogen call (Species: RAT, Route: SUBCUTANEOUS IMPLANT, Tumor Site: Type of Lesion: MAMMARY GLAND, URINARY BLADDER) was “active; positive”, the carcinogen call (Species: RAT, Route: SUBCUTANEOUS, Tumor Site: Type of Lesion: MAMMARY GLAND, PITUITARY GLAND) was “active; positive” and the carcinogen call (Species: RAT, Strain/Sex: ACI/FEMALE, Route: SUBCUTANEOUS IMPLANT, Dose: 0, 1.25 MG/100 G ONCE IN A 20 MG PELLET AT AGES 75, 127 AND 177 D (STUDY DURATION: 347-365 D), Tumor Site: Type of Lesion: MAMMARY GLAND: ADENOCARCINOMA) was “active; positive”. For the same compound, the carcinogen call (Species: RAT, Strain/Sex: WISTAR/FEMALE, Route: SUBCUTANEOUS, Dose: 0, 0.1, 0.5 MG/KG TO MOTHERS ON D 18, 19 AND 20 OF GESTATION (STUDY DURATION: 2 YR), Dose: 0, 0.1, 0.5 MG/KG TO MOTHERS ON D 18, 19 AND 20 OF GESTATION (STUDY DURATION: 2 YR), Tumor Site: Type of Lesion: VAGINA: TUMOR) was “active; positive” and the carcinogen call (Species: RAT, Strain/Sex: WISTAR/FEMALE, Route: SUBCUTANEOUS, Dose: 0, 25, 50 MG/KG TO MOTHERS ON D 19 AND 20 OF GESTATION (STUDY DURATION: 2 YR), Dose: 0, 25, 50 MG/KG TO MOTHERS ON D 19 AND 20 OF GESTATION (STUDY DURATION: 2 YR), Tumor Site: Type of Lesion: VAGINA: TUMOR) was “active; positive”.
For `O=CC1CO1` (stereo not drawn), the carcinogen call (Species: MOUSE, Route: DERMAL, Tumor Site: Type of Lesion: INTEGUMENTARY SYSTEM (SKIN)) was “active; positive” and the carcinogen call (Species: MOUSE, Route: SUBCUTANEOUS, Tumor Site: Type of Lesion: INJECTION SITE) was “active; positive”.
